From ChEMBL document CHEMBL3885861, “Open TG-GATES”

Organism: Rattus norvegicus
Experiment: Open TG-GATES - Regimen: Single
Assay type: toxicity, organism-based, Sprague-Dawley
Set-up: regimen Single, gender Male, age 6 weeks
Settings: in vivo, po, 250 mg/kg, route gavage, dose level High; for APTT / Bas / Eos / Fbg / Hb / Ht / Lym / MCH / MCHC / MCV / Mono / Neu / PT / Plat / RBC / Ret / WBC: tissue Blood; for KIDNEY_L / KIDNEY_R / KIDNEY_TOTAL: tissue Kidney; for LIVER: tissue Liver; for A/G / ALP / ALT / AST / BUN / CRE / Ca / Cl / DBIL / GLC / IP / K / LDH / Na / PL / RALB / TBIL / TC / TG / TP / gamma-GTP: tissue Plasma

## CCSCC[C@H](N)C(=O)O [ETHIONINE]
3 h
  TERMINAL_BW: 215.1 g
  APTT: 18.5 s
  Bas: 0%
  Eos: 1%
  Fbg: 205.8 mg/dL
  Hb: 13.6 g/dL
  Ht: 40%
  Lym: 74%
  MCH: 21.4 pg
  MCHC: 34%
  MCV: 62.9 fL
  Mono: 2.6%
  Neu: 20.6%
  PT: 12.5 s
  Plat: 117.7 x10_4/uL
  RBC: 635.6 x10_4/ul
  Ret: 7%
  WBC: 90.5 x10_2/uL
  KIDNEY_L: 1 g
  KIDNEY_R: 1 g
  KIDNEY_TOTAL: 2 g
  LIVER: 9.7 g
  A/G: 1.4
  ALP: 1004.6 IU/L
  ALT: 37.6 IU/L
  AST: 68 IU/L
  BUN: 10.6 mg/dL
  CRE: 0.4 mg/dL
  Ca: 10.3 mg/dL
  Cl: 100.8 meq/L
  DBIL: 0.054 mg/dL
  GLC: 210.4 mg/dL
  IP: 9.8 mg/dL
  K: 3.8 meq/L
  LDH: 183.6 IU/L
  Na: 139.6 meq/L
  PL: 127.8 mg/dL
  RALB: 3.2 g/dL
  TBIL: 0.1 mg/dL
  TC: 71 mg/dL
  TG: 43.4 mg/dL
  TP: 5.4 g/dL
  gamma-GTP: 1.2 IU/L
6 h
  TERMINAL_BW: 215.3 g
  APTT: 19.4 s
  Bas: 0%
  Eos: 1%
  Fbg: 203.2 mg/dL
  Hb: 13 g/dL
  Ht: 38.2%
  Lym: 76%
  MCH: 21.4 pg
  MCHC: 34.1%
  MCV: 62.6 fL
  Mono: 2.8%
  Neu: 19.2%
  PT: 13.1 s
  Plat: 122.2 x10_4/uL
  RBC: 610.4 x10_4/ul
  Ret: 7.1%
  WBC: 98.9 x10_2/uL
  KIDNEY_L: 1 g
  KIDNEY_R: 1 g
  KIDNEY_TOTAL: 1.9 g
  LIVER: 9.2 g
  A/G: 1.3
  ALP: 809.2 IU/L
  ALT: 33.8 IU/L
  AST: 64.2 IU/L
  BUN: 10.4 mg/dL
  CRE: 0.4 mg/dL
  Ca: 10.2 mg/dL
  Cl: 102 meq/L
  DBIL: 0.058 mg/dL
  GLC: 198.8 mg/dL
  IP: 9.6 mg/dL
  K: 3.9 meq/L
  LDH: 213.8 IU/L
  Na: 139 meq/L
  PL: 116.6 mg/dL
  RALB: 3 g/dL
  TBIL: 0.1 mg/dL
  TC: 64.6 mg/dL
  TG: 44.4 mg/dL
  TP: 5.3 g/dL
  gamma-GTP: 1.6 IU/L
9 h
  TERMINAL_BW: 212.6 g
  APTT: 20.5 s
  Bas: 0%
  Eos: 1%
  Fbg: 214.2 mg/dL
  Hb: 13.3 g/dL
  Ht: 39.1%
  Lym: 73.6%
  MCH: 21.2 pg
  MCHC: 34.2%
  MCV: 62 fL
  Mono: 3.2%
  Neu: 21.2%
  PT: 13.3 s
  Plat: 127.2 x10_4/uL
  RBC: 630.2 x10_4/ul
  Ret: 7%
  WBC: 72.8 x10_2/uL
  KIDNEY_L: 1 g
  KIDNEY_R: 1 g
  KIDNEY_TOTAL: 2 g
  LIVER: 9 g
  A/G: 1.6
  ALP: 774 IU/L
  ALT: 29.8 IU/L
  AST: 58.4 IU/L
  BUN: 8 mg/dL
  CRE: 0.3 mg/dL
  Ca: 10.4 mg/dL
  Cl: 101.4 meq/L
  DBIL: 0.072 mg/dL
  GLC: 199 mg/dL
  IP: 9.3 mg/dL
  K: 3.6 meq/L
  LDH: 195 IU/L
  Na: 139.6 meq/L
  PL: 111.2 mg/dL
  RALB: 3.4 g/dL
  TBIL: 0.1 mg/dL
  TC: 57.2 mg/dL
  TG: 77.4 mg/dL
  TP: 5.6 g/dL
  gamma-GTP: 1.2 IU/L
24 h
  TERMINAL_BW: 221.6 g
  APTT: 22 s
  Bas: 0%
  Eos: 1%
  Fbg: 210.4 mg/dL
  Hb: 13.9 g/dL
  Ht: 41%
  Lym: 74.4%
  MCH: 21.3 pg
  MCHC: 34%
  MCV: 62.5 fL
  Mono: 5.8%
  Neu: 16.8%
  PT: 14.4 s
  Plat: 116 x10_4/uL
  RBC: 655 x10_4/ul
  Ret: 6.3%
  WBC: 94.1 x10_2/uL
  KIDNEY_L: 1 g
  KIDNEY_R: 1 g
  KIDNEY_TOTAL: 2 g
  LIVER: 10.6 g
  A/G: 1.6
  ALP: 988 IU/L
  ALT: 39 IU/L
  AST: 74.4 IU/L
  BUN: 16 mg/dL
  CRE: 0.4 mg/dL
  Ca: 10.6 mg/dL
  Cl: 101.4 meq/L
  DBIL: 0.1 mg/dL
  GLC: 198.2 mg/dL
  IP: 8.8 mg/dL
  K: 3.7 meq/L
  LDH: 211 IU/L
  Na: 140 meq/L
  PL: 122.6 mg/dL
  RALB: 3.4 g/dL
  TBIL: 0.2 mg/dL
  TC: 47.2 mg/dL
  TG: 144 mg/dL
  TP: 5.6 g/dL
  gamma-GTP: 1.2 IU/L
